Our source for the MIC values is ChEMBL document CHEMBL1275501, “Plasmid-mediated quinolone resistance pump QepA2 in an Escherichia coli isolate from France” (2008).

≈ marks a conversion by molar mass, not a printed value.

Test [1] concerns Escherichia coli. As to the kind of experiment: Antimicrobial activity against Escherichia coli BicA expressing blaTEM-1, blaCTX-M-15 and qepA2 gene by disk diffusion method. For orientation: A growth-free zone around the sample is the usual read-out of agar diffusion tests.
For test [2], the system named is Escherichia coli. As to the kind of experiment: Antimicrobial activity against azide-resistant Escherichia coli J53 harboring pCTX-M plasmid carrying blaCTX-M-15 gene by disk diffusion method. In kind it is functional.
The test system of test [3] is Escherichia coli. The test is described as follows: Antimicrobial activity against azide-resistant Escherichia coli J53 harboring pCTX-M carrying blaCTX-M-15 and pQep plasmid carrying qepA2 gene by disk diffusion method. Format: functional.
Test [4] relates to Escherichia coli. The test is described as follows: Antimicrobial activity against azide-resistant Escherichia coli J53 by disk diffusion method. In kind it is functional.
Test [5] relates to Escherichia coli. As to the kind of experiment: Antimicrobial activity against Escherichia coli TOP10 harboring pQep plasmid carrying qepA2 gene by disk diffusion method. In kind it is functional.
Test [6] relates to Escherichia coli. As to the kind of experiment: Antimicrobial activity against Escherichia coli TOP10 by disk diffusion method. Format: functional.
In test [7] the test system is Escherichia coli. As to the kind of experiment: Antimicrobial activity against Escherichia coli BicA expressing blaTEM-1, blaCTX-M-15 and qepA2 gene by disk diffusion method in presence of beta-lactamase inhibitor Tazobactam. In kind it is functional.
Test [8] deals with Escherichia coli. The test is described as follows: Antimicrobial activity against azide-resistant Escherichia coli J53 harboring pCTX-M plasmid carrying blaCTX-M-15 gene by disk diffusion method in presence of beta-lactamase inhibitor Tazobactam. Format: functional.
In test [9] the test system is Escherichia coli. The test is described as follows: Antimicrobial activity against azide-resistant Escherichia coli J53 harboring pCTX-M carrying blaCTX-M-15 and pQep plasmid carrying qepA2 gene by disk diffusion method in presence of beta-lactamase inhibitor Tazobactam. In kind it is functional.
For test [10], the system named is Escherichia coli. The test is described as follows: Antimicrobial activity against azide-resistant Escherichia coli J53 by disk diffusion method in presence of beta-lactamase inhibitor Tazobactam. In kind it is functional.
The test system of test [11] is Escherichia coli. As to the kind of experiment: Antimicrobial activity against Escherichia coli TOP10 harboring pQep plasmid carrying qepA2 gene by disk diffusion method in presence of beta-lactamase inhibitor Tazobactam. In kind it is functional.
Test [12] relates to Escherichia coli. As to the kind of experiment: Antimicrobial activity against Escherichia coli TOP10 by disk diffusion method in presence of beta-lactamase inhibitor Tazobactam. Format: functional.

As a reminder, the MIC is the lowest concentration found to suppress growth. `CCN1CCN(C(=O)N[C@@H](C(=O)N[C@@H]2C(=O)N3[C@@H]2SC(C)(C)[C@@H]3C(=O)O)c2ccccc2)C(=O)C1=O` [PIPERACILLIN]: the MIC in test [1] was > 256 µg/mL; in test [2] it was > 256 µg/mL; in test [3], > 256 µg/mL; in test [4], 2 µg/mL (≈ 3.86 µM); in test [5], > 256 µg/mL; in test [6], 2 µg/mL (≈ 3.86 µM). Moreover, the MIC in test [7] came to 4 µg/mL; in test [8], 2 µg/mL; in test [9], 2 µg/mL; in test [10], 1 µg/mL; in test [11], 2 µg/mL; in [12] it was 1 µg/mL.
